Test results taken from US20240207292A1, “BORONIC ACID COMPOUNDS, COMPOSITIONS AND METHODS” (Trustees of Tufts College, priority 2021, published 2024).

Experiments:
[1] = Stability of 6555 with sulfur-containing and other stabilizers, 50 mM AAPH at 80° C. for 30 mins (Tables 7-9); format: physicochemical
Excerpt: The effect of specified sulfur-containing compounds and other stabilizer compounds (including non-sulfur-containing stabilizer compounds) and mixtures of sulfur-containing compounds and non-sulfur-containing stabilizer compounds with the boronic acid compound 6555 (structure shown above) at various pH values.

recombinant human FAP = recombinant human FAP (Homo sapiens (Human), UniProt Q12884); assay: In vitro enzyme IC50 assay, FAP (Example 16); format: biochemical; details: 10 min preincubation at 25° C.; Z-Gly-Pro-AMC
recombinant human FAP, sequence (Q12884 whole entry): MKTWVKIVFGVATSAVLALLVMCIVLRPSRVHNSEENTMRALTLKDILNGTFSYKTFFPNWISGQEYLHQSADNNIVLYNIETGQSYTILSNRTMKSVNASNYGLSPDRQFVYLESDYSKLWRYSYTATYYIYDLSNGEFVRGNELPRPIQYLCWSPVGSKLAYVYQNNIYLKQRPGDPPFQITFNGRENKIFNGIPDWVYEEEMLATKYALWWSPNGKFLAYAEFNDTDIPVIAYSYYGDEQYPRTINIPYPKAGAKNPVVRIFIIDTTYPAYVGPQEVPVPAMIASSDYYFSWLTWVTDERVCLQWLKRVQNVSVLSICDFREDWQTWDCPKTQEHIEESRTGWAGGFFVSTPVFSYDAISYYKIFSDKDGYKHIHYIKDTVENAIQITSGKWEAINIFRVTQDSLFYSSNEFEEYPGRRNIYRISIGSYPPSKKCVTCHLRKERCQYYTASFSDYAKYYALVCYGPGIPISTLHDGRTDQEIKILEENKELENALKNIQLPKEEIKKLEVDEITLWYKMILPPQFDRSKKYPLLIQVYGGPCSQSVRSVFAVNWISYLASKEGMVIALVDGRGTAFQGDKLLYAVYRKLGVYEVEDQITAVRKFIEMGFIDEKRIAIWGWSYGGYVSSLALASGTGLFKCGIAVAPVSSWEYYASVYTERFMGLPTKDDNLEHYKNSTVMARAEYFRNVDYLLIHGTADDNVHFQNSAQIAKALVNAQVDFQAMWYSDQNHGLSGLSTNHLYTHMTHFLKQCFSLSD
Experimental: Biological Materials: For the in vitro IC50 determination assays, recombinant human DPPIV, DPP9, FAP, and PREP were purchased from R&D Systems, and DPP8 was from Biomol International. Buffer systems used were A (25 mM Tris, pH 8.0), B (50 mM Tris, pH 7.5), C (50 mM Tris, 140 mM NaCl, pH 7.5), D (25 mM Tris, 250 mM NaCl, pH 7.5), and E (20 mM Tris, 20 mM KCl, pH 7.4). […] Substrate Specificity Assay. Peptide libraries (0.21 mM) were incubated for 24 h with 1 nM FAP in buffer E at 37° C. The reaction was quenched by the addition of 1.2 N HCl. The samples were analyzed by reverse-phase HPLC-MS on a Thermo Finnigan LCQ Duo, quantifying the peaks in the resulting base peak chromatograms. Relative cleavage values were determined by comparing the postquench abundance of intact peptides to those in the initial library.
In Vitro Enzyme IC50 Assays. Enzymatic activity of DPPIV, DPP8, DPP9, FAP, and PREP was measured at 25° C. on a Molecular Devices M2e multidetection microtiter plate reader, monitoring the fluorescence at an excitation wavelength of 380 nm and an emission wavelength of 460 nm. The substrate was either H-Gly-Pro-AMC for the DPPIV, DPP8, and DPP9 assays or Z-Gly-Pro-AMC for the FAP and PREP assays. […] The final enzyme concentrations were 0.1, 0.8, 0.4, 1.2, and 0.6 nM for DPPIV, DPP8, DPP9, FAP, and PREP, respectively. […] Those prepared in pH 2.0 solution were preincubated at 25° C. for 4 h prior to dilution. Immediately prior to the commencement of the experiment, the 100 mM stocks were further diluted to 10^-3 M in the appropriate assay buffer, from which 1:10 serial dilutions were prepared. All inhibitors were tested in triplicate.

[2] = Effect of N-acetyl methionine (NAM) on stability of 6522/6555 with 50 mM AAPH at 80° C. for 30 mins; format: physicochemical; details: pH 5.0, 2 mg/mL
Experimental: Effect of N-acetyl methionine (NAM) on the stability of the compound 6522 (6522 compound structure immediately below) 80° C. in the presence of AAPH 2,2′-azobis-(2-amidopropane)hydrochloride, a free radical generator.
• Concentration:2 mg/mL • Reaction condition: add 50 mM AAPH, at 80° C. for 30 mins

[3] = Effect of NAM on stability of 6522/6555 with 50 mM AAPH at 60° C. for 60 mins as a function of pH; format: physicochemical; details: 5 mM NAM and 50 mM AAPH
Experimental: Effect of […] N-acetyl methionine (NAM) on the stability of the compounds 6522 (6522 compound structure shown above) at 60° C. in the presence of AAPH 2,2′-azobis-(2-amidopropane)hydrochloride as a function of pH.
• Concentration: of 6522 2 mg/mL • Reaction condition: With 5 mM NAM and 50 mM AAPH, at 60° C. for 60 mins

SMILES: C[C@@H](NC(=O)c1ccc(CNC(=O)CN2CCN(CC(=O)O)CCN(CC(=O)O)CCN(CC(=O)O)CC2)cc1)C(=O)N1CCC[C@H]1B(O)O [compound 6555, DOTA-aminomethyl-Bz-D-Ala-boroPro]
- 6555 Remain (%) ([1]; ascorbate (2.5 mM) +, gentisate (1 mM) +, Sodium sulfite 5.0 mM, pH 4.6, SID 90617, AAPH 80° C. 30 mins): 90.3%
- 6555 Remain (%) ([1]; ascorbate (2.5 mM) +, gentisate (1 mM) +, Sodium sulfite 10.0 mM, pH 4.8, SID 90613, AAPH 80° C. 30 mins): 93.8%
- 6555 Remain (%) ([1]; ascorbate (2.5 mM) +, gentisate (1 mM) +, Sodium sulfite 25.0 mM, pH 5.1, SID 90517, AAPH 80° C. 30 mins): 94.1%
- 6555 Remain (%) ([1]; ascorbate (2.5 mM) +, gentisate (1 mM) +, Stabilizer (1 mM) NAM, pH 4.6, SID 90629, AAPH 80° C. 30 mins): 30.8%
- 6555 Remain (%) ([1]; ascorbate (2.5 mM) +, gentisate (1 mM) +, Stabilizer (1 mM) Sodium hydrosulfite, pH 4.5, SID 90629, AAPH 80° C. 30 mins): 47.4%
- 6555 Remain (%) ([1]; ascorbate (2.5 mM) +, gentisate (1 mM) +, Stabilizer (1 mM) Sodium metabisulfite, pH 4.5, SID 90628, AAPH 80° C. 30 mins): 71.1%
- 6555 Remain (%) ([1]; ascorbate (2.5 mM) +, gentisate (1 mM) +, Stabilizer (2.5 mM) Acetone sodium bisulfite, pH 4.6, SID 90523, AAPH 80° C. 30 mins): 94.0%
- 6555 Remain (%) ([1]; ascorbate (2.5 mM) +, gentisate (1 mM) +, Stabilizer (2.5 mM) Acetone sodium bisulfite, pH 4.6, SID 90621, second listing, AAPH 80° C. 30 mins): 73.1%
- 6555 Remain (%) ([1]; ascorbate (2.5 mM) +, gentisate (1 mM) +, Stabilizer (2.5 mM) D-mannitol, pH 4.5, SID 90641, AAPH 80° C. 30 mins): 15.5%
- 6555 Remain (%) ([1]; ascorbate (2.5 mM) +, gentisate (1 mM) +, Stabilizer (2.5 mM) MSM(dimethyl sulfone), pH 4.5, SID 90598, AAPH 80° C. 30 mins): 8.2%
- 6555 Remain (%) ([1]; ascorbate (2.5 mM) +, gentisate (1 mM) +, Stabilizer (2.5 mM) N-Acetyl-L-phenylalanine, pH 4.0, SID 90610, AAPH 80° C. 30 mins): 20.1%
- 6555 Remain (%) ([1]; ascorbate (2.5 mM) +, gentisate (1 mM) +, Stabilizer (2.5 mM) N-Acetyl-L-tyrosine, pH 4.0, SID 90589, AAPH 80° C. 30 mins): 13.6%
- 6555 Remain (%) ([1]; ascorbate (2.5 mM) +, gentisate (1 mM) +, Stabilizer (2.5 mM) NAC, pH 4.1, SID 90582, AAPH 80° C. 30 mins): 31.4%
- 6555 Remain (%) ([1]; ascorbate (2.5 mM) +, gentisate (1 mM) +, Stabilizer (2.5 mM) NAM, pH 4.0, SID 90543, AAPH 80° C. 30 mins): 90.8%
- 6555 Remain (%) ([1]; ascorbate (2.5 mM) +, gentisate (1 mM) +, Stabilizer (2.5 mM) NAM, pH 4.5, SID 90623, second listing, AAPH 80° C. 30 mins): 53.3%
- 6555 Remain (%) ([1]; ascorbate (2.5 mM) +, gentisate (1 mM) +, Stabilizer (2.5 mM) Potassium metabisulfite, pH 4.4, SID 90622, second listing, AAPH 80° C. 30 mins): 93.7%
- 6555 Remain (%) ([1]; ascorbate (2.5 mM) +, gentisate (1 mM) +, Stabilizer (2.5 mM) Potassium metabisulfite, pH 4.5, SID 90526, AAPH 80° C. 30 mins): 94.1%
- 6555 Remain (%) ([1]; ascorbate (2.5 mM) +, gentisate (1 mM) +, Stabilizer (2.5 mM) Sodium L-Glutamate monohydrate, pH 4.7, SID 90604, AAPH 80° C. 30 mins): 8.2%
- 6555 Remain (%) ([1]; ascorbate (2.5 mM) +, gentisate (1 mM) +, Stabilizer (2.5 mM) Sodium formaldehydesulfoxylate dihydrate, pH 4.4, SID 90527, AAPH 80° C. 30 mins): 91.7%
- 6555 Remain (%) ([1]; ascorbate (2.5 mM) +, gentisate (1 mM) +, Stabilizer (2.5 mM) Sodium formaldehydesulfoxylate dihydrate, pH 4.5, SID 90620, second listing, AAPH 80° C. 30 mins): 58.0%
- 6555 Remain (%) ([1]; ascorbate (2.5 mM) +, gentisate (1 mM) +, Stabilizer (2.5 mM) Sodium hydrosulfite, pH 4.3, SID 90539, AAPH 80° C. 30 mins): 94.1%
- 6555 Remain (%) ([1]; ascorbate (2.5 mM) +, gentisate (1 mM) +, Stabilizer (2.5 mM) Sodium hydrosulfite, pH 4.4, SID 90537, second listing, AAPH 80° C. 30 mins): 91.7%
- 6555 Remain (%) ([1]; ascorbate (2.5 mM) +, gentisate (1 mM) +, Stabilizer (2.5 mM) Sodium metabisulfite, pH 4.4, SID 90515, AAPH 80° C. 30 mins): 93.8%
- 6555 Remain (%) ([1]; ascorbate (2.5 mM) +, gentisate (1 mM) +, Stabilizer (2.5 mM) Sodium metabisulfite, pH 4.5, SID 90619, second listing, AAPH 80° C. 30 mins): 93.4%
- 6555 Remain (%) ([1]; ascorbate (2.5 mM) +, gentisate (1 mM) +, Stabilizer (2.5 mM) Sodium sulfite, pH 4.5, SID 90616, second listing, AAPH 80° C. 30 mins): 67.9%
- 6555 Remain (%) ([1]; ascorbate (2.5 mM) +, gentisate (1 mM) +, Stabilizer (2.5 mM) Thiourea, pH 4.5, SID 90607, AAPH 80° C. 30 mins): 84.1%
- 6555 Remain (%) ([1]; ascorbate (2.5 mM) +, gentisate (1 mM) +, Stabilizer none, pH 5.1, SID 90525, AAPH 80° C. 30 mins): 16.7%
- 6555 Remain (%) ([1]; ascorbate none, gentisate none, Stabilizer (2.5 mM) NAM, pH 4.0, SID 90640, AAPH 80° C. 30 mins): 85.9%
- 6555 Remain (%) ([1]; ascorbate none, gentisate none, Stabilizer none, pH 4.6, SID 90646, AAPH 80° C. 30 mins): 55.8%
- 6555 Remain (%) ([1]; mM: ascorbate 0, gentisate 0, NAM 5, metabisulfite 5, hydrosulfite 0, pH 4.3, SID 90664, 50 mM AAPH 80° C. 30 mins): 88.8%
- 6555 Remain (%) ([1]; mM: ascorbate 2.5, gentisate 1, NAM 2.5, metabisulfite 2.5, hydrosulfite 0, pH 4.5, SID 90637, 50 mM AAPH 80° C. 30 mins): 94.8%
- 6555 Remain (%) ([1]; mM: ascorbate 2.5, gentisate 1, NAM 10, metabisulfite 2.5, hydrosulfite 0, pH 4.0, SID 90638, 50 mM AAPH 80° C. 30 mins): 93.2%
- 6555 Remain (%) ([1]; mM: ascorbate 2.5, gentisate 1, NAM 25, metabisulfite 2.5, hydrosulfite 0, pH 4.0, SID 90631, 50 mM AAPH 80° C. 30 mins): 92.2%
- 6555 Remain (%) ([1]; mM: ascorbate 5, gentisate 2, NAM 0, metabisulfite 5, hydrosulfite 0, pH 4.5, SID 90643, 50 mM AAPH 80° C. 30 mins): 95.6%
- 6555 Remain (%) ([1]; mM: ascorbate 5, gentisate 2, NAM 0, metabisulfite 5, hydrosulfite 5, pH 4.4, SID 90686, 50 mM AAPH 80° C. 30 mins): 95.3%
- 6555 Remain (%) ([1]; mM: ascorbate 5, gentisate 2, NAM 5, metabisulfite 0, hydrosulfite 0, pH 4.5, SID 90642, 50 mM AAPH 80° C. 30 mins): 66.5%
- 6555 Remain (%) ([1]; mM: ascorbate 5, gentisate 2, NAM 5, metabisulfite 0, hydrosulfite 5, pH 4.5, SID 90701, 50 mM AAPH 80° C. 30 mins): 95.7%
- 6555 Remain (%) ([1]; mM: ascorbate 5, gentisate 2, NAM 5, metabisulfite 5, hydrosulfite 0, pH 4.5, SID 90639, 50 mM AAPH 80° C. 30 mins): 95.8%
- 6555 Remain (%) ([1]; mM: first column (ascorbate) 2.5, gentisate 1, NAM 0, metabisulfite 2.5, hydrosulfite 0, pH 4.5, SID 90619, 50 mM AAPH 80° C. 30 mins): 93.4%
- IC50 (recombinant human FAP): 0.7 nM
- 6555 Remain (%) ([2]; NAM 0 mM): 64.5%
- 6555 Remain (%) ([2]; NAM 10 mM): 81.7%
- 6555 Remain (%) ([2]; NAM 40 mM): 82.9%
- 6555 Remain (%) ([2]; NAM 80 mM): 85.0%
- 6555 Remain (%) ([2]; NAM 100 mM): 85.6%
- 6555 Remain (%) ([2]; NAM 200 mM): 87.3%
- 6555 Remain (%) ([2]; NAM 400 mM): 90.2%
- 6555 Remain (%) ([3]; pH 4, 2 mg/mL): 76.2%
- 6555 Remain (%) ([3]; pH 5, 2 mg/mL): 70.0%
